From publication PMC3448645, “Functional Studies of ssDNA Binding Ability of MarR Family Protein TcaR from Staphylococcus epidermidis” (PLoS ONE, 2012)

Tests used:
[1] = biological target: T1, TcaR (Staphylococcus epidermidis, UniProt Q5HLN6); assay: EMSA, inhibition of TcaR-GC33 ssDNA complex; type: binding; conditions: 1 uM GC33 ssDNA, 2 uM TcaR dimer, 2 or 20 uM antibiotic, pH 8.0, room temperature
T1 construct: homodimer

[2] = biological target: T1, TcaR; assay: EMSA, inhibition of TcaR-GC33 ssDNA complex; also SPR; type: binding; conditions: 1 uM GC33 ssDNA, 2 uM TcaR dimer, 2 or 20 uM antibiotic, pH 8.0, room temperature; SPR: 64 nM TcaR, 640 nM antibiotic, pH 7.5, 25 °C

Row | SMILES | EMSA, inhibition of TcaR-GC33 ssDNA complex [1] | EMSA, inhibition of TcaR-GC33 ssDNA complex; also SPR [2]
1 | O=C(N[C@H](CO)[C@H](O)c1ccc([N+](=O)[O-])cc1)C(Cl)Cl [chloramphenicol] | kanamycin, chloramphenicol and gentamycin interfered with the ssDNA (GC33) binding activity of TcaR | –
2 | NC[C@H]1O[C@H](O[C@H]2[C@H](O)[C@@H](O[C@H]3O[C@H](CO)[C@@H](O)[C@H](N)[C@H]3O)[C@H](N)C[C@@H]2N)[C@H](O)[C@@H](O)[C@@H]1O [kanamycin] | – | kanamycin, chloramphenicol and gentamycin interfered with the ssDNA (GC33) binding activity of TcaR
